Results: patent publication US20240002362A1, “DEUTERATED 2-ARYLHETEROCYCLE-3-OXO-2,3- DIHYDROPYRIDAZINE-4-CARBOXAMIDE INHIBITOR AND PREPARATION METHOD THEREFOR AND APPLICATION THEREOF” (Shanghai Zelgen Pharma. Tech Co., Ltd., priority 2020, published 2024)

What was measured:
Format in all cases: in vivo
[1] = Pharmacokinetic test and evaluation in rats; settings: rat, po; male SD rats, gavage 2 mg/kg, plasma, n = 4, mean
Protocol: Pharmacokinetic Test and Evaluation in Rats
(§1) After male SD rats weighing about 220 g were fasted overnight, the rats were gavaged with 2 mg/kg of a solution of the compound of the present invention [CMC/TW80 as a carrier]. Blood was collected 0.5, 1.0, 2.0, 4.0, 6.0, 8.0, 12 and 24 h after the administration of the compound of the present invention, respectively, and the concentration of the compound of the present invention in plasma was determined by LC/MS/MS.

[2] = Pharmacokinetic test and evaluation in beagle dogs; settings: dog, po; male beagle dogs, gavage 2 mg/kg, plasma, n = 4, mean
Protocol: Pharmacokinetic Test and Evaluation in Beagle Dogs
as §1, with “beagle dogs” for “SD rats”, “6-7 Kg” for “220 g”, “beagle dogs” for “rats”

[3] = test system: mouse colon cancer cells CT26.WT; assay: Pharmacodynamic test of anti-tumor activity, subcutaneous transplantation cancer model CT26.WT; settings: CT26.WT subcutaneous in nude mice; for TV (mm^3) (Tumor Volume) Day 0: Day 0 (baseline at grouping), 30 mg/Kg daily gavage; for % TGI (Tumor Growth Inhibition) / TV (mm^3) (Tumor Volume) Day 17: Day 17, 30 mg/Kg daily gavage
Protocol: Pharmacodynamic Test and Evaluation of Anti-Tumor Activity
1. Subcutaneous Transplantation Cancer Model CT26.WT
5×10^5/100 uL of mouse colon cancer cells CT26.WT were subcutaneously inoculated into the right back of nude mice. The mice were monitored daily for health condition, and the measurement was started when tumors grew to be palpable. The tumor volume was calculated by adopting the following formula: 0.5×L×W^2, wherein L and W represent tumor length and width, respectively. When the tumor grew to about 50 mm^3, the mice were randomly grouped. The mice were gavaged daily with a solution of the compound at a corresponding dose (30 mg/Kg) [CMC/TW80 as a carrier], and at the same time, the general state of the mice was monitored. After the administration was started, the mice were weighed twice in the first week, and the tumor volume was measured twice; from the second week, the mice were weighed three times a week, and the tumor volume was measured three times.

[4] = Pharmacokinetic test and evaluation in mice; settings: mouse, po; male ICR mice, gavage 2 mg/kg, plasma, n = 4, mean
Protocol: Pharmacokinetic Test and Evaluation in Mice
as §1, with “ICR mice” for “SD rats”, “20-30” for “220”, “mice” for “rats”

| SMILES | AUC(0-t) [1] [ng·h/mL] | Cmax [1] [ng/mL] | AUC(0-t) [2] [ng·h/mL] | Cmax [2] [ng/mL] | TV (mm^3) (Tumor Volume) Day 0 [3] | % TGI (Tumor Growth Inhibition) [3] [%] | TV (mm^3) (Tumor Volume) Day 17 [3] | AUC(0-t) [4] [ng·h/mL] | Cmax [4] [ng/mL] |
| --- | --- | --- | --- | --- | --- | --- | --- | --- | --- |
| C[C@@H](CO)NC(=O)c1cc(-c2ccc(Cl)cc2)nn(-c2cnn(C)c2)c1=O [BAY-2416964, reference compound] | 624 | 99.5 | 995 | 211 | 55.81 | 24.7 | 1670.91 | 1490 | 348 |
| [2H]C([2H])([2H])n1cc(-n2nc(-c3ccc(Cl)cc3)cc(C(=O)N[C@@H](C)CO)c2=O)cn1 [Example 2, (S)-6-(4-chlorophenyl)-N-(1-hydroxypropan-2-yl)-2-(1-(methyl-d3)-1H-pyrazole-4-yl)-3-oxo-2,3-dihydropyridazine-4-carboxamide] | 990 | 146 | – | – | – | – | – | 850 | 241 |
| [2H]C([2H])(O)[C@H](C)NC(=O)c1cc(-c2ccc(Cl)cc2)nn(-c2cnn(C)c2)c1=O [Example 7, (S)-6-(4-chlorophenyl)-N-(1-hydroxypropan-2-yl-1,1-d2)-2-(1-methyl-1H-pyrazole-4-yl)-3-oxo-2,3-dihydropyridazine-4-carboxamide] | 736 | 96.6 | – | – | – | – | – | 2460 | 351 |
| [2H]C([2H])(O)[C@H](C)NC(=O)c1cc(-c2ccc(Cl)cc2)nn(-c2cnn(C([2H])([2H])[2H])c2)c1=O [Example 8, (S)-6-(4-chlorophenyl)-N-(1-hydroxypropan-2-yl-1,1-d2)-2-(1-(methyl-d3)-1H-pyrazole-4-yl)-3-oxo-2,3-dihydropyridazine-4-carboxamide] | 1390 | 230 | 1880 | 294 | 55.68 | 50.5 | 1117.93 | 2620 | 351 |
